Assay results taken from US20220340597A1, “HEXAHYDRO-1H-PYRAZINO[1,2-A]PYRAZINE COMPOUNDS FOR THE TREATMENT OF AUTOIMMUNE DISEASE” (Hoffmann-La Roche Inc., priority 2019, published 2022).

Tests used:
human TLR7 = molecular target: T1, human TLR7 (Homo sapiens, UniProt Q9NYK1); test: HEK293-Blue-hTLR-7 cells assay; format: cell-based; conditions: HEK293-Blue-hTLR7 cells, R848 stimulation, 20 hrs, SEAP reporter; read-out: HEK/hTLR7 IC50
T1 construct: host or cells: HEK293 (HEK-Blue hTLR7)
T1 sequence (Q9NYK1 27-1049): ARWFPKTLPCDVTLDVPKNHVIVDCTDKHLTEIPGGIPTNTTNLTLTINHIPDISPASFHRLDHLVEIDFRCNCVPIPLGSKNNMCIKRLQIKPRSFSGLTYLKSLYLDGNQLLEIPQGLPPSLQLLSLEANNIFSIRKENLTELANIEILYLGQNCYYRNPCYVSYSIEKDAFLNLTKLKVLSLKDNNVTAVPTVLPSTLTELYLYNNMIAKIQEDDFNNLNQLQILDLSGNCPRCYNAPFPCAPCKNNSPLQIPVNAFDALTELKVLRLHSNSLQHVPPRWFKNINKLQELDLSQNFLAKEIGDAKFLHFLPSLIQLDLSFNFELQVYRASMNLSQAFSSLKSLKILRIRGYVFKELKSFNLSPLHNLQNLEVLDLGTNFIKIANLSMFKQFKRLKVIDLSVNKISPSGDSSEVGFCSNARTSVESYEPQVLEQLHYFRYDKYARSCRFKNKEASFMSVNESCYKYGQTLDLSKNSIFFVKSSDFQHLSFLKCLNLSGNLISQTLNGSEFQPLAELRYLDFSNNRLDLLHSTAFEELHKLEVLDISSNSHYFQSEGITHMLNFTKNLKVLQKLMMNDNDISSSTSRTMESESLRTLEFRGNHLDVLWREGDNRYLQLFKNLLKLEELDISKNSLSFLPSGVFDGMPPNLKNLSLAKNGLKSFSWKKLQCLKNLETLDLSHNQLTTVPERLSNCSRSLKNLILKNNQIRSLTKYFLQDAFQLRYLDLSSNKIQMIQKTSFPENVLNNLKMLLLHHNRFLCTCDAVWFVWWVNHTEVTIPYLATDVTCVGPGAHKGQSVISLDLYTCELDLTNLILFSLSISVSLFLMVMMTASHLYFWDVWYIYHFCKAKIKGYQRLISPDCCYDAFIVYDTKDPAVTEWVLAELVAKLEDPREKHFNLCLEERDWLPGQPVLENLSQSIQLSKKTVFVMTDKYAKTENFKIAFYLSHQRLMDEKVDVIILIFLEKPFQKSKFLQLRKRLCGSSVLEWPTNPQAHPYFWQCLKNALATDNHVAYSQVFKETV

human TLR8 = molecular target: T2, human TLR8 (Homo sapiens, UniProt Q9NR97); test: HEK293-Blue-hTLR-8 cells assay
T2 sequence (Q9NR97 27-1041): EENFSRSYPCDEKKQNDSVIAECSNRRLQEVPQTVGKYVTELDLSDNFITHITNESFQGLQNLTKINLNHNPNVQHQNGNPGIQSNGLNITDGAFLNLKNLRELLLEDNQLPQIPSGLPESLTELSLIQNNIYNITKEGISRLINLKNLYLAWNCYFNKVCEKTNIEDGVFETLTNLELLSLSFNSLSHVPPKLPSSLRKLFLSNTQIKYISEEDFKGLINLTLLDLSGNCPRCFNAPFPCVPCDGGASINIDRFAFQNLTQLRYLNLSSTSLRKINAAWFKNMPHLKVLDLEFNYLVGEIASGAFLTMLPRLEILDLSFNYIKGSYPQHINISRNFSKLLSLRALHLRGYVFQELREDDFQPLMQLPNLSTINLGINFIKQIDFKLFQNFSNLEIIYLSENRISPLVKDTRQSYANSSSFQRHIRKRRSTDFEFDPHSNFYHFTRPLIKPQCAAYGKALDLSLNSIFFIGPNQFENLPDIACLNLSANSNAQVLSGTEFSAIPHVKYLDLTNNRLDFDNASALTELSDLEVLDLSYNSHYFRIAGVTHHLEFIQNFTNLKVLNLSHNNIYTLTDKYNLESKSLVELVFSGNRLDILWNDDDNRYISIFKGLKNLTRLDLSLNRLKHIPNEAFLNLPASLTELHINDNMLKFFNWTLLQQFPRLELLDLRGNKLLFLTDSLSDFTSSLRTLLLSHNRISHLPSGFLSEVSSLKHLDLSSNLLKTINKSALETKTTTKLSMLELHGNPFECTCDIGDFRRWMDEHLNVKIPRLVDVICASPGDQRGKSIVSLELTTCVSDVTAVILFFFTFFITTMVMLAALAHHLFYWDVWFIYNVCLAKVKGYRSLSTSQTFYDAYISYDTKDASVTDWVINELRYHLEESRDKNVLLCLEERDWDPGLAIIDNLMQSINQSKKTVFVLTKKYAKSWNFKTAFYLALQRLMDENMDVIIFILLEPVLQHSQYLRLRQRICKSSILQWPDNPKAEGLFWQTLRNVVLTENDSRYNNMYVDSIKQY
Method: The following tests were carried out in order to determine the activity of the compounds of formula (I) and (Ia) in HEK293-Blue-hTLR-7/8/9 cells assay.
HEK293-Blue-hTLR-8 Cells Assay:
A stable HEK293-Blue-hTLR-8 cell line was purchased from InvivoGen (Cat. #: hkb-htlr8, San Diego, Calif., USA). These cells were originally designed for studying the stimulation of human TLR8 by monitoring the activation of NF-κB. A SEAP (secreted embryonic alkaline phosphatase) reporter gene was placed under the control of the IFN-β minimal promoter fused to five NF-κB and AP-1-binding sites. The SEAP was induced by activating NF-κB and AP-1 via stimulating HEK-Blue hTLR8 cells with TLR8 ligands. Therefore, the reporter expression was declined by TLR8 antagonist under the stimulation of a ligand, such as R848, for incubation of 20 hrs. The cell culture supernatant SEAP reporter activity was determined using QUANTI-Blue™ kit (Cat. #: rep-qb1, Invivogen, San Diego, Calif., USA) at a wavelength of 640 nm, a detection medium that turns purple or blue in the presence of alkaline phosphatase.

## Cc1cc(N2CCN3[C@@H](C2)CN(c2ccc(C#N)c4ncccc24)C[C@H]3C)cc(N2CC(C)(N)C2)n1 [Example 73, 5-[(4R,9aS)-8-[2-(3-amino-3-methyl-azetidin-1-yl)-6-methyl-4-pyridyl]-4-methyl-3,4,6,7,9,9a-hexahydro-1H-pyrazino[1,2-a]pyrazin-2-yl]quinoline-8-carbonitrile]
Human TLR7
  IC50: 25 nM
Human TLR8
  IC50: 18 nM

## C[C@@H]1CN(c2ccc(C#N)c3ncccc23)C[C@@H]2CN(Cc3cccc4c3CCNC4)CCN21 [Example 70, 5-[(4R,9aS)-4-methyl-8-(1,2,3,4-tetrahydroisoquinolin-5-ylmethyl)-3,4,6,7,9,9a-hexahydro-1H-pyrazino[1,2-a]pyrazin-2-yl]quinoline-8-carbonitrile]
Human TLR7
  IC50: 11 nM
Human TLR8
  IC50: 12 nM

## C[C@@H]1CN(c2ccc(C#N)c3ncccc23)C[C@@H]2CN(Cc3ccc4c(c3)CNCC4)CCN21 [Example 5, 5-[(4R,9aS)-4-methyl-8-(1,2,3,4-tetrahydroisoquinolin-7-ylmethyl)-3,4,6,7,9,9a-hexahydro-1H-pyrazino[1,2-a]pyrazin-2-yl]quinoline-8-carbonitrile]
Human TLR7
  IC50: 17 nM
Human TLR8
  IC50: 12 nM

## [2H]c1ccc2c(N3C[C@@H]4CN(c5ncc(N6CC(C)(N)C6)cc5C)CCN4[C@@H](C)C3)ccc(C#N)c2n1 [Example 118, 5-[(4S,9aR)-8-[5-(3-amino-3-methyl-azetidin-1-yl)-3-methyl-2-pyridyl]-4-methyl-3,4,6,7,9,9a-hexahydro-1H-pyrazino[1,2-a]pyrazin-2-yl]-2-deuterio-quinoline-8-carbonitrile]
Human TLR7
  IC50: 4 nM
Human TLR8
  IC50: 6 nM

## C[C@@H]1CN(c2ccc(C#N)c3ncccc23)C[C@@H]2CN(CCc3ccc(N4C[C@H]5NCCO[C@@H]5C4)nc3)CCN21 [Example 124, 5-[(4R,9aS)-8-[2-[6-[(4aR,7aR)-3,4,4a,5,7,7a-hexahydro-2H-pyrrolo[3,4-b][1,4]oxazin-6-yl]-3-pyridyl]ethyl]-4-methyl-3,4,6,7,9,9a-hexahydro-1H-pyrazino[1,2-a]pyrazin-2-yl]quinoline-8-carbonitrile]
Human TLR7
  IC50: 14 nM
Human TLR8
  IC50: 51 nM

## C[C@@H]1CN(c2ccc(C#N)n3ncc(F)c23)C[C@@H]2CN(CCc3ccc(N4C[C@@H](N)[C@@H](F)C4)nc3)CCN21 [Example 75, 4-[(4R,9aS)-8-[2-[6-[(3R,4S)-3-amino-4-fluoro-pyrrolidin-1-yl]-3-pyridyl]ethyl]-4-methyl-3,4,6,7,9,9a-hexahydro-1H-pyrazino[1,2-a]pyrazin-2-yl]-3-fluoro-pyrazolo[1,5-a]pyridine-7-carbonitrile]
Human TLR7
  IC50: 34 nM
Human TLR8
  IC50: 84 nM

## [2H]c1ccc2c(N3C[C@@H]4CN(c5ccc6c(n5)CCNC6)CCN4[C@@H](C)C3)ccc(C#N)c2n1 [Example 121, 5-[(4S,9aR)-4-methyl-8-(5,6,7,8-tetrahydro-1,6-naphthyridin-2-yl)-3,4,6,7,9,9a-hexahydro-1H-pyrazino[1,2-a]pyrazin-2-yl]-2-deuterio-quinoline-8-carbonitrile]
Human TLR7
  IC50: 5 nM
Human TLR8
  IC50: 1 nM

## C[C@@H]1CN(c2ccc(C#N)c3ncccc23)C[C@@H]2CN(c3cc(N4CCNCC4)ccn3)CCN21 [Example 34, 5-[(4R,9aR)-4-methyl-8-(4-piperazin-1-yl-2-pyridyl)-3,4,6,7,9,9a-hexahydro-1H-pyrazino[1,2-a]pyrazin-2-yl]quinoline-8-carbonitrile]
Human TLR7
  IC50: 20 nM
Human TLR8
  IC50: 14 nM

## C[C@@H]1CN(c2ccc(C#N)c3ncccc23)C[C@@H]2CN(c3ccnc(N4CCOC[C@H](N)C4)c3)CCN21 [Example 54, 5-[(4R,9aS)-8-[2-[(6R)-6-amino-1,4-oxazepan-4-yl]-4-pyridyl]-4-methyl-3,4,6,7,9,9a-hexahydro-1H-pyrazino[1,2-a]pyrazin-2-yl]quinoline-8-carbonitrile]
Human TLR7
  IC50: 23 nM
Human TLR8
  IC50: 26 nM

## C[C@@H]1CN(c2ccc(C#N)n3ncc(F)c23)C[C@@H]2CN(Cc3ccc4c(c3)CNCC4)CCN21 [Example 69, 4-[(4R,9aS)-4-methyl-8-(1,2,3,4-tetrahydroisoquinolin-7-ylmethyl)-3,4,6,7,9,9a-hexahydro-1H-pyrazino[1,2-a]pyrazin-2-yl]-3-fluoro-pyrazolo[1,5-a]pyridine-7-carbonitrile]
Human TLR7
  IC50: 66 nM
Human TLR8
  IC50: 52 nM

## Cc1cc(N2CC3(CN(C)C3)C2)cnc1N1CCN2[C@@H](C1)CN(c1cc(=O)n(C)c3ncccc13)C[C@@H]2C [Example 113, 4-[(4S,9aR)-4-methyl-8-[3-methyl-5-(6-methyl-2,6-diazaspiro[3.3]heptan-2-yl)-2-pyridyl]-3,4,6,7,9,9a-hexahydro-1H-pyrazino[1,2-a]pyrazin-2-yl]-1-methyl-1,8-naphthyridin-2-one]
Human TLR7
  IC50: 6 nM
Human TLR8
  IC50: 142 nM

## [2H]c1ccc2c(N3C[C@@H]4CN(c5ccc([C@H]6CNCCO6)cc5)CCN4[C@@H](C)C3)ccc(C#N)c2n1 [Example 107, 5-[(4S,9aS)-4-methyl-8-[4-[(2S)-morpholin-2-yl]phenyl]-3,4,6,7,9,9a-hexahydro-1H-pyrazino[1,2-a]pyrazin-2-yl]-2-deuterio-quinoline-8-carbonitrile]
Human TLR7
  IC50: 3 nM
Human TLR8
  IC50: 4 nM

## [2H]c1ccc2c(N3C[C@@H]4CN(c5ccc(CCN6C[C@H](OC)[C@@H](N)C6)cn5)CCN4[C@H](C)C3)ccc(C#N)c2n1 [Example 109, 5-[(4R,9aR)-8-[5-[2-[(3S,4S)-3-amino-4-methoxy-pyrrolidin-1-yl]ethyl]-2-pyridyl]-4-methyl-3,4,6,7,9,9a-hexahydro-1H-pyrazino[1,2-a]pyrazin-2-yl]-2-deuterio-quinoline-8-carbonitrile]
Human TLR7
  IC50: 5 nM
Human TLR8
  IC50: 4 nM

## C[C@@H]1CN(c2ccc(C#N)c3ncccc23)C[C@@H]2CN(CCc3ccc(N4CCN[C@@H](C)C4)cn3)CCN21 [Example 20, 5-[(4R,9aS)-4-methyl-8-[2-[5-[(3S)-3-methylpiperazin-1-yl]-2-pyridyl]ethyl]-3,4,6,7,9,9a-hexahydro-1H-pyrazino[1,2-a]pyrazin-2-yl]quinoline-8-carbonitrile]
Human TLR7
  IC50: 14 nM
Human TLR8
  IC50: 51 nM

## C[C@@H]1CN(c2ccc(C#N)c3ncccc23)C[C@@H]2CN(CCc3ccc(N4CC5(CN(C)C5)C4)nc3)CCN21 [Example 22, 5-[(4R,9aS)-4-methyl-8-[2-[6-(6-methyl-2,6-diazaspiro[3.3]heptan-2-yl)-3-pyridyl]ethyl]-3,4,6,7,9,9a-hexahydro-1H-pyrazino[1,2-a]pyrazin-2-yl]quinoline-8-carbonitrile]
Human TLR7
  IC50: 26 nM
Human TLR8
  IC50: 58 nM

## Cc1nc(N2CC(C)(N)C2)ccc1CN1CCN2[C@@H](C1)CN(c1ccc(C#N)c3ncccc13)C[C@H]2C [Example 76, 5-[(4R,9aS)-8-[[6-(3-amino-3-methyl-azetidin-1-yl)-2-methyl-3-pyridyl]methyl]-4-methyl-3,4,6,7,9,9a-hexahydro-1H-pyrazino[1,2-a]pyrazin-2-yl]quinoline-8-carbonitrile]
Human TLR7
  IC50: 16 nM
Human TLR8
  IC50: 5 nM
